Values joined by “and” are separate entries in the source; they are usually repeats but may differ in a detail not shown here. Identical values can stand only once.
Test system: 855422-203-R-J1-PDC spheroids with HUVEC/MSC, viability
Experiment: Anticancer human tumor 855422-203-R-J1-PDC patient-derived bladder carcinoma cell line growth inhibition [PI3K]
Conditions: for viability, T/C: stronger effect = lower value
Method in brief: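 Agents were dosed from a top concentration near clinical Cmax (otherwise 10 microM) in half-log decrements, alone or combined with PI3K inhibitors. The spheroids contain tumor cells plus endothelial (HUVEC) and MSC stroma; viability is measured.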

[1] = curve of first compound, second compound 0.0316 µM
[2] = curve of first compound, second compound 0.1 µM
[3] = curve of first compound, second compound 0.316 µM
[4] = curve of first compound, second compound 1 µM
[5] = curve of first compound, second compound 3.16 µM
[6] = curve of first compound, second compound 10 µM
[7] = second compound 0.0316 µM, first compound 0.0316 µM
[8] = second compound 0.0316 µM, first compound 0.1 µM
[9] = second compound 0.0316 µM, first compound 0.316 µM
[10] = second compound 0.0316 µM, first compound 1 µM
[11] = second compound 0.0316 µM, first compound 3.16 µM
[12] = second compound 0.0316 µM, first compound 10 µM
[13] = second compound 0.1 µM, first compound 0.0316 µM
[14] = second compound 0.1 µM, first compound 0.1 µM
[15] = second compound 0.1 µM, first compound 0.316 µM
[16] = second compound 0.1 µM, first compound 1 µM
[17] = second compound 0.1 µM, first compound 3.16 µM
[18] = second compound 0.1 µM, first compound 10 µM
[19] = second compound 0.316 µM, first compound 0.0316 µM
[20] = second compound 0.316 µM, first compound 0.1 µM
[21] = second compound 0.316 µM, first compound 0.316 µM
[22] = second compound 0.316 µM, first compound 1 µM
[23] = second compound 0.316 µM, first compound 3.16 µM
[24] = second compound 0.316 µM, first compound 10 µM
[25] = second compound 1 µM, first compound 0.0316 µM
[26] = second compound 1 µM, first compound 0.1 µM
[27] = second compound 1 µM, first compound 0.316 µM
[28] = second compound 1 µM, first compound 1 µM
[29] = second compound 1 µM, first compound 3.16 µM
[30] = second compound 1 µM, first compound 10 µM
[31] = second compound 3.16 µM, first compound 0.0316 µM
[32] = second compound 3.16 µM, first compound 0.1 µM
[33] = second compound 3.16 µM, first compound 0.316 µM
[34] = second compound 3.16 µM, first compound 1 µM
[35] = second compound 3.16 µM, first compound 3.16 µM
[36] = second compound 3.16 µM, first compound 10 µM
[37] = second compound 10 µM, first compound 0.0316 µM
[38] = second compound 10 µM, first compound 0.1 µM
[39] = second compound 10 µM, first compound 0.316 µM
[40] = second compound 10 µM, first compound 1 µM
[41] = second compound 10 µM, first compound 3.16 µM
[42] = second compound 10 µM, first compound 10 µM
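Also: agents incubated with spheroids for one week before read-out.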
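For viability, T/C in this document: 100% = DMSO vehicle-treated control wells.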

Which results are given for `CC1(C)CCC(CN2CCN(c3ccc(C(=O)NS(=O)(=O)c4ccc(NCC5CCOCC5)c([N+](=O)[O-])c4)c(Oc4cnc5[nH]ccc5c4)c3)CC2)=C(c2ccc(Cl)cc2)C1`?
viability, T/C (compound 0.0316 µM): 107% [middle of 4 runs]; viability, T/C (compound 0.1 µM): 92.7% [middle of 4 runs]; viability, T/C (compound 0.316 µM): 118% [middle of 4 runs]; viability, T/C (compound 1 µM): 102% and 95.7% and 103% (2×); viability, T/C (compound 10 µM): 2.29% [middle of 4 runs]; IC50 (curve of compound): 4.81 µM [middle of 4 runs]

How did the IC50 [1] turn out when `CC1(C)CCC(Nc2ncc(C(F)(F)F)c(-c3c[nH]c4c(P(C)(C)=O)c(C#N)ccc34)n2)CN1` (stereo not given) + Cc1nc(NC(=O)N2CCCC2C(N)=O)sc1-c1ccnc(C(C)(C)C(F)(F)F)c1 was run?
The IC50 was < 0.0316 µM.

And the IC50 [2]?
The IC50 was < 0.0316 µM.

And the IC50 [3]?
Its IC50 is < 0.0316 µM.

And the IC50 [4]?
Its IC50 is < 0.0316 µM.

What about the IC50 [5] of the same molecule?
The IC50 was < 0.0316 µM.

And the IC50 [6]?
The IC50 was < 0.0316 µM.

What about the viability, T/C [7] of the same molecule?
The viability, T/C was 27%.

And the viability, T/C [8]?
Its viability, T/C is 25.1%.

And the viability, T/C [9]?
The viability, T/C was 25.5%.

What about the viability, T/C [10] of the same molecule?
Its viability, T/C is 29.4%.

What about the viability, T/C [11] of the same molecule?
The viability, T/C was 26.9%.

What about the viability, T/C [12] of the same molecule?
Its viability, T/C is 7.04%.

And the viability, T/C [13]?
Its viability, T/C is 26%.

And the viability, T/C [14]?
Its viability, T/C is 23.9%.

And the viability, T/C [15]?
The viability, T/C was 25%.

What about the viability, T/C [16] of the same molecule?
Its viability, T/C is 26.7%.

What about the viability, T/C [17] of the same molecule?
The viability, T/C was 28%.

What about the viability, T/C [18] of the same molecule?
The viability, T/C was 7.41%.

And the viability, T/C [19]?
The viability, T/C was 22.5%.

What about the viability, T/C [20] of the same molecule?
The viability, T/C was 23%.

What about the viability, T/C [21] of the same molecule?
Its viability, T/C is 25%.

What about the viability, T/C [22] of the same molecule?
Its viability, T/C is 22%.

And the viability, T/C [23]?
The viability, T/C was 18.5%.

What about the viability, T/C [24] of the same molecule?
The viability, T/C was 5.22%.

And the viability, T/C [25]?
Its viability, T/C is 20.2%.

And the viability, T/C [26]?
The viability, T/C was 20.2%.

And the viability, T/C [27]?
Its viability, T/C is 18.7%.

What about the viability, T/C [28] of the same molecule?
Its viability, T/C is 19.6%.

What about the viability, T/C [29] of the same molecule?
Its viability, T/C is 17.5%.

And the viability, T/C [30]?
The viability, T/C was 2.99%.

And the viability, T/C [31]?
Its viability, T/C is 16.3%.

What about the viability, T/C [32] of the same molecule?
The viability, T/C was 15.4%.

And the viability, T/C [33]?
The viability, T/C was 13.3%.

What about the viability, T/C [34] of the same molecule?
The viability, T/C was 12.9%.

And the viability, T/C [35]?
The viability, T/C was 10.8%.

What about the viability, T/C [36] of the same molecule?
The viability, T/C was 0.7%.

And the viability, T/C [37]?
The viability, T/C was 11.8%.

And the viability, T/C [38]?
Its viability, T/C is 10.2%.

What about the viability, T/C [39] of the same molecule?
The viability, T/C was 8.26%.

What about the viability, T/C [40] of the same molecule?
Its viability, T/C is 8.63%.

What about the viability, T/C [41] of the same molecule?
The viability, T/C was 6.11%.

And the viability, T/C [42]?
Its viability, T/C is 0.26%.

How did the IC50 [1] turn out when `CC(C)NCC(C(=O)N1CCN(c2ncnc3c2C(C)CC3O)CC1)c1ccc(Cl)cc1` (stereo not given) + Cc1nc(NC(=O)N2CCCC2C(N)=O)sc1-c1ccnc(C(C)(C)C(F)(F)F)c1 was run?
Its IC50 is 1.36 µM.

What about the IC50 [2] of the same molecule?
The IC50 was 1.08 µM.

What about the IC50 [3] of the same molecule?
Its IC50 is 0.875 µM.

What about the IC50 [4] of the same molecule?
The IC50 was 0.188 µM.

And the IC50 [5]?
Its IC50 is < 0.0316 µM.

And the IC50 [6]?
Its IC50 is < 0.0316 µM.

What about the viability, T/C [7] of the same molecule?
The viability, T/C was 94.8%.

And the viability, T/C [8]?
Its viability, T/C is 77.4%.

And the viability, T/C [9]?
Its viability, T/C is 80.7%.

And the viability, T/C [10]?
The viability, T/C was 52.2%.

What about the viability, T/C [11] of the same molecule?
Its viability, T/C is 35.9%.

And the viability, T/C [12]?
Its viability, T/C is 20%.

What about the viability, T/C [13] of the same molecule?
Its viability, T/C is 88.6%.

What about the viability, T/C [14] of the same molecule?
Its viability, T/C is 80.6%.

And the viability, T/C [15]?
The viability, T/C was 67.9%.

What about the viability, T/C [16] of the same molecule?
Its viability, T/C is 51.1%.

And the viability, T/C [17]?
Its viability, T/C is 33.7%.

What about the viability, T/C [18] of the same molecule?
Its viability, T/C is 19.3%.

What about the viability, T/C [19] of the same molecule?
Its viability, T/C is 85.6%.

What about the viability, T/C [20] of the same molecule?
Its viability, T/C is 69%.

And the viability, T/C [21]?
Its viability, T/C is 68.3%.

What about the viability, T/C [22] of the same molecule?
The viability, T/C was 47.2%.

And the viability, T/C [23]?
The viability, T/C was 30.8%.

What about the viability, T/C [24] of the same molecule?
The viability, T/C was 16.1%.

What about the viability, T/C [25] of the same molecule?
The viability, T/C was 58%.

What about the viability, T/C [26] of the same molecule?
Its viability, T/C is 55%.

What about the viability, T/C [27] of the same molecule?
Its viability, T/C is 42.4%.

And the viability, T/C [28]?
The viability, T/C was 42.5%.

And the viability, T/C [29]?
The viability, T/C was 24.2%.

And the viability, T/C [30]?
Its viability, T/C is 11.1%.

And the viability, T/C [31]?
Its viability, T/C is 39.8%.

And the viability, T/C [32]?
The viability, T/C was 37%.

What about the viability, T/C [33] of the same molecule?
Its viability, T/C is 30.7%.

What about the viability, T/C [34] of the same molecule?
The viability, T/C was 30.2%.

And the viability, T/C [35]?
The viability, T/C was 17.5%.

And the viability, T/C [36]?
The viability, T/C was 7.85%.

And the viability, T/C [37]?
The viability, T/C was 20.2%.

What about the viability, T/C [38] of the same molecule?
The viability, T/C was 15.3%.

What about the viability, T/C [39] of the same molecule?
The viability, T/C was 17.8%.

What about the viability, T/C [40] of the same molecule?
Its viability, T/C is 14.2%.

What about the viability, T/C [41] of the same molecule?
Its viability, T/C is 10.5%.

What about the viability, T/C [42] of the same molecule?
The viability, T/C was 3.97%.

From PubChem BioAssay AID1963967 (Molecular Pharmacology Branch, DTP, NCI, 2024)
